Among the data in PubChem BioAssay (NCI) are TGI and GI50 values, retold here.

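1) Cells in 96-well plates. 2) Compound, 48 h, 5 concentrations. 3) Linear interpolation between surrounding doses. 4) Unreached endpoint = highest concentration. The concentration for 50% growth inhibition is given as GI50. Definition used: TGI = concentration required for complete inhibition of growth.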 Where only a bound is given, the exact number is not on record here.

What all share (assay): inhibition of tumour cell growth, NCI panel, 48 h
The test system of assay [1] is SK-MEL-5 melanoma.
Assay [2] relates to HL-60(TB) leukemia.
In assay [3] the test system is NCI-H226 lung.
Assay [4] relates to LOX IMVI melanoma.
The test system of assay [5] is SK-OV-3 ovarian.
Assay [6] concerns SK-MEL-28 melanoma.
The subject of assay [7] is SF-539 CNS.
Assay [8] has as its system HCT-116 colon.
For assay [9], the system named is M14 melanoma.
The subject of assay [10] is NCI-H460 lung.
Assay [11] deals with RPMI-8226 leukemia.
Assay [12] concerns SNB-19 CNS.
Assay [13] concerns MCF7 breast.

Turning to `CCOC(=O)/C(=C/c1ccco1)P(=O)(OCC)OCC`, the TGI in [1], in assay [2], in assay [3], in [4], in assay [5] and in assay [6] was above 100 µM each time. The TGI in assay [7], in [8], in assay [9], in assay [10] and in [11] was above 100 µM throughout.

For `NC(=O)NC(=NCc1ccccc1)NCc1ccccc1`, the TGI in [1], in [4], in assay [5], in assay [6], in [7] and in [8] was above 100 µM in each case. In addition, the TGI in [12], in [9] and in assay [10] was above 100 µM throughout.

Regarding `O=C(c1ccccc1)[C@H]1Nc2cnccc2C2c3ccccc3CC21` (stereo partly specified), the TGI in [1] worked out at 10.1 µM; in [2], 23.2 µM; in assay [3], 20.2 µM; in assay [4], 3.55 µM; in assay [5], 44.8 µM; in assay [6] it was 18.9 µM. Also, the TGI in assay [7] is above 62.6 µM; in assay [8], above 38.4 µM; in [12], above 100 µM; in [9], 19.9 µM; in [10], 33.9 µM; in assay [11], 34.4 µM.

As for `CN1c2ccccc2C(=O)NC12CCN(CC1COc3ccccc3O1)CC2` (stereo unspecified), the TGI in assay [1] is 41.5 µM; in assay [2], above 100 µM; in [3] it was 87.4 µM; in [4], above 100 µM; in [5], above 100 µM; in assay [6] it was above 100 µM. Further, the TGI in [7], in [8], in [12], in [13], in assay [9] and in [10] was above 100 µM throughout. Moreover, the TGI in assay [11] is above 100 µM.

In the case of `COC(=O)C(=O)C(C(=O)C(=O)Nc1cc([N+](=O)[O-])ccc1C#N)c1nc2ccccc2[nH]c1=O` (stereo unspecified), the TGI in assay [1], in assay [2], in assay [3], in assay [4], in assay [5] and in assay [6] was above 100 µM in each case. Further, the TGI in assay [7], in assay [8], in [12], in assay [9] and in assay [10] was above 100 µM in each case.

With `C=C1CC2C(=O)N(c3ccccc3)C(=O)C2CC1n1[nH]c(=O)n(Cc2ccccc2)c1=O` (stereo unspecified), the TGI in [1], in assay [2], in [3], in assay [4], in assay [5] and in assay [6] was above 100 µM in each case. Also, the TGI in assay [7], in assay [8], in assay [12], in assay [9], in [10] and in assay [11] was above 100 µM throughout.

Take `CNc1ccc2c(c1)Cc1ccccc1-2`: the TGI in assay [1] was 74.7 µM; in assay [2], above 100 µM; in [3], above 100 µM; in assay [4], above 100 µM; in [6], above 100 µM; in [7], above 100 µM. Also, the TGI is above 100 µM in assay [8]; above 100 µM in assay [12]; above 100 µM in assay [13]; 71.3 µM in assay [9]; above 100 µM in [10]; above 100 µM in assay [11].

With `CCOC(=O)C(NC(=O)c1ccc(N=NN(C)C)cc1)C(C)C` (stereo unspecified), the TGI in [1], in [2], in assay [3], in assay [4], in [5] and in assay [6] was above 100 µM throughout. Besides, the TGI in assay [7], in [8], in [12], in assay [9], in assay [10] and in assay [11] was above 100 µM in each case.

As to `NC(CCSCC(F)F)C(=O)O` (stereo unspecified), the TGI in assay [1], in assay [2], in [3], in assay [4], in [6] and in assay [7] was above 100 µM throughout. The TGI in assay [8], in assay [12], in assay [9] and in assay [10] was above 100 µM each time.

For the compound `CC1(C)OC(=O)C=C([O-])O1.CC1(C)OC(=O)C=C([O-])O1.O=c1c(O)c(-c2ccc([O-])cc2[O-])oc2cc(O)cc(O)c12.[Ti+4]`, the TGI in assay [1], in [2], in [3], in assay [4], in [5] and in assay [6] was above 100 µM throughout. For the same compound, the TGI was 60.2 µM in assay [7]; above 100 µM in [8]; above 100 µM in assay [12]; above 100 µM in [9]; above 100 µM in assay [10]; above 100 µM in [11]. Besides, the GI50 is 83.1 µM in [5] and 59 µM in assay [11].

On to `COc1ccc(/C=N/Nc2nc3ccccc3c(=O)n2-c2ccccc2)c(OCc2ccccc2)c1`, for which the TGI in assay [1], in [2], in assay [3], in [4], in assay [5] and in assay [6] was above 100 µM in each case. The TGI in [7], in assay [8], in [12], in [13], in assay [9] and in assay [10] was above 100 µM throughout. The compound further came in with a TGI in [11] above 100 µM. The GI50 in assay [11] was above 100 µM.

In the case of `COC(=O)/C=C\S/C(=C(/c1ccccc1)n1ccc(C(=O)OC)n1)c1ccccc1`, the TGI in assay [1] was above 100 µM; in assay [2], above 100 µM; in assay [3] it was above 100 µM; in assay [4], above 100 µM; in [5], 50.8 µM; in assay [6], above 100 µM. In addition, the TGI in [7] is above 100 µM; in [8], above 100 µM; in assay [12], 42.2 µM; in assay [13] it was 28.7 µM; in assay [9], above 100 µM; in assay [10] it was above 100 µM. The compound also registered a TGI in assay [11] above 100 µM.

Take `Cc1cc(C)nc(NS(=O)(=O)c2ccc(Nc3c4ccccc4nc4c(C(=O)N5CCN(CCOS(C)(=O)=O)CC5)ccc(Cl)c34)cc2)n1`: the TGI in assay [1], in assay [2], in assay [3], in [5], in [6] and in assay [7] was above 100 µM in each case. The TGI in assay [8], in assay [12], in assay [9], in [10] and in [11] was above 100 µM each time.

For the compound `N#CC(C#N)=Cc1cccc(Oc2ccccc2)c1`, the TGI in [1] is 36.6 µM; in assay [2] it was 47.3 µM; in [3] it was above 69.1 µM; in assay [4], 43.6 µM; in assay [5], above 100 µM; in assay [6], 20 µM. Further, the TGI came to 35.1 µM in [7]; 32.9 µM in assay [8]; 59.4 µM in assay [12]; 40.4 µM in assay [9]; 61 µM in [10]; 62.5 µM in [11].

For the compound `COC(=O)/C(=N\NC(=S)NN)C(C(=O)C(=O)Nc1ccccc1C(N)=O)c1nc2ccccc2[nH]c1=O` (stereo unspecified), the TGI in assay [1], in [3], in assay [6], in [7], in assay [8] and in assay [12] was above 100 µM throughout. For the same compound, the TGI in assay [9] and in assay [11] was above 100 µM throughout.

For `FC(F)=C(c1ccc(-c2ccc(Cl)cc2)cc1)C(F)(F)F`, the TGI in assay [1] was 32.9 µM; in assay [2], above 100 µM; in assay [5], 41.2 µM; in assay [6], 28.4 µM; in assay [7], 45.3 µM; in assay [8] it was 32 µM. Moreover, the TGI in assay [12] was 36.9 µM; in assay [9], 36.1 µM; in assay [10] it was 33.7 µM; in assay [11], 51.8 µM.

In the case of `COc1ccc(CCCCl)c(C2=NCCc3ccccc32)c1`, the TGI was 45 µM in assay [1]; above 100 µM in [2]; above 100 µM in assay [3]; above 100 µM in assay [5]; above 100 µM in [6]; above 100 µM in assay [7]. For the same compound, the TGI was above 100 µM in [8]; above 100 µM in assay [12]; above 100 µM in [13]; above 100 µM in assay [9]; above 100 µM in assay [10]; 21.7 µM in [11].
